Values of other authors as cited in the CATMoS acute toxicity set (Mansouri et al. 2021).

Assay: rat acute oral toxicity
Details: in vivo
Description: […]The data set underlying the modeling effort for this project was initially compiled by NICEATM and U.S. EPA’s CCTE. Briefly, LD50 data were collected from rat acute oral systemic toxicity tests, including limit tests, ranges/confidence intervals, and discrete LD50 values. The full data set included 21,200 LD50 entries for 15,688 substances. […] Data were reviewed to ensure that LD50 values with obvious errors in the extracted data such as unit conversion errors (e.g., comma and decimal separator misplacements) were either fixed or removed. After this review, 16,209 LD50 values remained. Many of the chemicals represented had multiple LD50 entries, requiring that a single representative value per Chemical Abstracts Service Registry Number (CASRN) identifier be defined to facilitate modeling efforts. Based on ATWG feedback and to define the representative LD50 as a protective value while accounting for the distribution across multiple LD50s, the median of the lowest quartile was computed using only discrete LD50 values (omitting limit test data and range and confidence interval data). A detailed summary of the data compilation is available online on the NICEATM webpage dedicated to the collaborative modeling project (NTP 2020).
[…][…] For categorical designations, limit test and range/confidence interval LD50 data were integrated wherever possible. As such, the number of chemicals with end point values/calls varies across the modeling end points (Table 3) based on whether chemicals had representative LD50 values and/or other data. If a chemical had both, the representative value was used to determine categorical calls rather than limit test data. Some data were useable only for certain end points and categories depending on the thresholds. For example, ranges that spanned multiple hazard categories were considered only for the binary (very toxic/nontoxic) end points and omitted from rendering a determination for hazard category assignment.
[…]The final data set comprising 11,992 chemicals was split into training and evaluation sets […], respectively. This process was performed semirandomly by ordering chemicals based on the five end points (categorical and continuous LD50 values) and partitioning every fourth record into the evaluation set accordingly. This approach was taken to ensure an equivalent distribution of the LD50 values and the different hazard categories between the training and the evaluation sets without supervised sampling of the chemicals based on structures (Figure 1A). The sources of the chemical structures were also kept equivalent between the two sets, with chemical structures obtained from DSSTox, being the highest quality, representing over 75% of each set (Figure 1B).

Row | Structure (SMILES) | LD50 [mg/kg]
1 | CC1(C)CC2(NC(=O)N(CCCN3CCC(O)CC3)C2=O)c2cc(F)ccc2O1 (configuration not stated) | 780
2 | CCc1c(C)nc2ccc(Cl)cn2c1=O | 1100
3 | CNCCCN | 951
4 | C1CS1 | 178
5 | CCCCn1c2ccccc2c2cc(N)ccc21 | 946
6 | O=C(OCC(O)C1COc2ccccc2O1)N1CCOCC1 (configuration not stated) | 1500
7 | CC(C)=CCCC(C)CC(=O)O (configuration not stated) | 2610
8 | CCOC(=O)CC | 8730
9 | CCc1ccccc1N | 1260
10 | Cc1cc(C(=O)Nc2ccccc2)c(C)o1 | 64
11 | CC(C)c1cccc(C(C)C)c1N=C=O | 1410
12 | COC(=O)c1ccccc1OC | 3800
13 | CCOP(=O)(OCC)OC(=C(Cl)Br)c1ccc(Cl)cc1Cl | 19.3
14 | COc1ccc(CCC2=NCCc3cc(OC)c(OC)cc32)cc1OC | 900
15 | FC(F)(F)c1nnc2c3ccccc3ccn12 | 660
16 | Cn1c(=O)c2c(ncn2CCCCCN2CCN(c3cccc(C(F)(F)F)c3)CC2)n(C)c1=O | 660
17 | CC(CN1c2ccccc2Sc2ccc(S(=O)(=O)N(C)C)cc21)N(C)C (configuration not stated) | 1320
18 | O=C(CCl)c1ccc(O)cc1 | 230
19 | Cc1ccc2sc(C)nc2c1 | 957
20 | CCC1(CCl)COC1 | 570
21 | O=S1(=O)OCC2C(CO1)C1(Cl)C(Cl)=C(Cl)C2(Cl)C1(Cl)Cl (configuration not stated) | 18

Row | Structure (SMILES) | LD50 [mg/kg]
22 | CC(=S)Nc1ccccc1 | 2640
23 | Nc1ccc(N=Nc2ccc(O)cc2)cc1 | 1950
24 | CN(C)C(=S)SSC(=S)NCCNC(=S)SSC(=S)N(C)C | 3000
25 | CCCCC(CC)OCCOCCO (configuration not stated) | 2940
26 | CCC=CC=CC=O | 1150
27 | CC[N+](C)(C)CCO | 6930
28 | O=C(O)C(=O)C(O)=C(O)O | 6000
29 | C=CC1(C)CCC(C(C)(C)O)O1 (configuration not stated) | 1150
30 | CCC(C)c1ccccc1OC(=O)NC (configuration not stated) | 350
31 | CCCCN(CCCC)S(=O)(=O)c1ccc(Cl)cc1 | 500
32 | CN(C)C(=O)c1nc(CNC(=O)CN)n(-c2ccc(Cl)cc2C(=O)c2ccccc2Cl)n1 | 680
33 | Cc1cccc(C)c1NC1=NCCCS1 | 130
34 | CCN(Cc1ccncc1)C(=O)C(CO)c1ccccc1 (configuration not stated) | 865
35 | CC(Cc1ccccc1)NCC1COc2ccccc2C1=O (configuration not stated) | 500
36 | O=C(O)c1c(Cl)ccc(Cl)c1Cl | 1640
37 | COc1ccccc1N1CCN(CCC(=O)c2ccc(N3CCOCC3)cc2)CC1 | 400
38 | ClCC(Cl)=C(Cl)Cl | 350
39 | C=COCC(C)CCCC(C)CC(C)C (configuration not stated) | 1220
40 | c1ccc([Se]c2ccccc2)cc1 | 360
41 | CC(C)Oc1ccccc1[N+](=O)[O-] | 2500
42 | ClCc1cc(Cl)cc(Cl)c1 | 1080

Row | Structure (SMILES) | LD50 [mg/kg]
43 | CC(CC1CCCCC1)NCCC(c1ccccc1)c1ccccc1 (configuration not stated) | 1550
44 | CCC1(C(C)CC(C)C)C(=O)NC(=O)NC1=O (configuration not stated) | 75
45 | CCc1cc2c(cc1C=O)C(C)(C)CCC2(C)C | 3200
46 | O=S(=O)(O)C(F)(F)F | 1610
47 | CNP1(=S)OCc2cc([N+](=O)[O-])ccc2O1 (configuration not stated) | 125
48 | O=C1CCCCCC=CCCCCCCCCO1 | 339
49 | CNC(=O)ON=CC1(C)SC(C)C(C)S1 (configuration not stated) | 2.5
50 | CCOP(=S)(OCC)Sc1ccc(C)cc1 | 316
51 | Cc1ccc(/N=N/c2c(O)c(S(=O)(=O)O)cc3ccc(S(=O)(=O)O)cc23)c(C)c1 | 23200
52 | CCc1cccc2cc(C(O)CNC(C)(C)C)oc12 (configuration not stated) | 750
53 | NC1CC1 | 445
54 | COc1c(Cl)ccc2[nH]c(C(F)(F)F)nc12 | 3.15
55 | CC(=O)CCC(=O)O | 1850
56 | C[C@]12CCC(=O)C=C1C=C[C@@H]1[C@@H]2CC[C@@]2(C)[C@H]1CC[C@@]2(O)CCC(=O)O | 650
57 | CCC1NC(=O)c2cc(N)ccc2O1 (configuration not stated) | 1890
58 | C=CCN(C)N=O | 340
59 | COc1cc2nc(N3CCN(C(=O)c4ccco4)CC3)nc(N)c2cc1OC | 1950
60 | Cc1c[nH]cn1 | 751
61 | CC(C)c1s[nH]c2nc(C(C)(C)C)nc(=O)c1-2 | 10200
62 | C1=CC(c2ccc(C3CC=CCC3)cc2)CCC1 (configuration not stated) | 17500
